# Measured values as given in PubChem BioAssay AID1963873 (Molecular Pharmacology Branch, DTP, NCI, 2024).
# System: 276233-004-R-J1-PDC KRAS spheroids with HUVEC/MSC, viability
# Assay: Anticancer human tumor 276233-004-R-J1-PDC patient-derived colon adenocarcinoma cell line growth inhibition [KRAS2]
# Details: for IC50: curve of first compound; for viability, T/C: stronger effect = lower value
# How it was run: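 Combination screen of spheroid viability in tumor-cell co-cultures with endothelial (HUVEC) and mesenchymal stem cell stroma. Each agent was tested in half-log dilutions, topping at clinical Cmax or at 10 microM without a known Cmax.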
# [1] = second compound 0.1 µM, first compound 0.0316 µM
# [2] = second compound 0.1 µM, first compound 0.1 µM
# [3] = second compound 0.1 µM, first compound 0.316 µM
# [4] = second compound 0.1 µM, first compound 1 µM
# [5] = second compound 0.1 µM, first compound 3.16 µM
# [6] = second compound 0.1 µM, first compound 10 µM
# [7] = second compound 0.316 µM, first compound 0.0316 µM
# [8] = second compound 0.316 µM, first compound 0.1 µM
# [9] = second compound 0.316 µM, first compound 0.316 µM
# [10] = second compound 0.316 µM, first compound 1 µM
# [11] = second compound 0.316 µM, first compound 3.16 µM
# [12] = second compound 0.316 µM, first compound 10 µM
# [13] = second compound 1 µM, first compound 0.0316 µM
# [14] = second compound 1 µM, first compound 0.1 µM
# [15] = second compound 1 µM, first compound 0.316 µM
# [16] = second compound 1 µM, first compound 1 µM
# [17] = second compound 1 µM, first compound 3.16 µM
# [18] = second compound 1 µM, first compound 10 µM
# [19] = second compound 3.16 µM, first compound 0.0316 µM
# [20] = second compound 3.16 µM, first compound 0.1 µM
# [21] = second compound 3.16 µM, first compound 0.316 µM
# [22] = second compound 3.16 µM, first compound 1 µM
# [23] = second compound 3.16 µM, first compound 3.16 µM
# [24] = second compound 3.16 µM, first compound 10 µM
# [25] = second compound 10 µM, first compound 0.0316 µM
# [26] = second compound 10 µM, first compound 0.1 µM
# 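Further: cells exposed to agents for seven days before viability read.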
# 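Wherever viability, T/C is given: 100% = DMSO vehicle control wells and lower values mean fewer viable cells.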
compound,measurement,setting,value
Cn1nccc1Nc1nccc(-c2cc3c(s2)C(C)(C)N(CCN2CCOCC2)C3=O)n1 + C=CC(=O)N1CCN(c2nc(OCC3CCCN3C)nc3c2CCN(c2cccc4cccc(C)c24)C3)CC1CC#N,IC50,second compound 0.0316 µM,4830 nM
same,IC50,second compound 0.1 µM,> 10000 nM
same,IC50,second compound 0.316 µM,> 10000 nM
same,IC50,second compound 1 µM,> 10000 nM
same,IC50,second compound 3.16 µM,236 nM
same,"viability, T/C","second compound 0.0316 µM, first compound 0.0316 µM",99.8%
same,"viability, T/C","second compound 0.0316 µM, first compound 0.1 µM",108%
same,"viability, T/C","second compound 0.0316 µM, first compound 0.316 µM",86.1%
same,"viability, T/C","second compound 0.0316 µM, first compound 1 µM",75.9%
same,"viability, T/C","second compound 0.0316 µM, first compound 3.16 µM",51.7%
same,"viability, T/C","second compound 0.0316 µM, first compound 10 µM",44.5%
same,"viability, T/C",[1],100%
same,"viability, T/C",[2],99.3%
same,"viability, T/C",[3],79.7%
same,"viability, T/C",[4],75.7%
same,"viability, T/C",[5],51.7%
same,"viability, T/C",[6],52.2%
same,"viability, T/C",[7],109%
same,"viability, T/C",[8],98%
same,"viability, T/C",[9],101%
same,"viability, T/C",[10],77.8%
same,"viability, T/C",[11],56.4%
same,"viability, T/C",[12],57.4%
same,"viability, T/C",[13],101%
same,"viability, T/C",[14],109%
same,"viability, T/C",[15],87.2%
same,"viability, T/C",[16],77%
same,"viability, T/C",[17],55.3%
same,"viability, T/C",[18],65.9%
same,"viability, T/C",[19],68.7%
same,"viability, T/C",[20],46.7%
same,"viability, T/C",[21],46.7%
same,"viability, T/C",[22],47.5%
same,"viability, T/C",[23],21.2%
same,"viability, T/C",[24],10.9%
CC1(C)CCC(CN2CCN(c3ccc(C(=O)NS(=O)(=O)c4ccc(NCC5CCOCC5)c([N+](=O)[O-])c4)c(Oc4cnc5[nH]ccc5c4)c3)CC2)=C(c2ccc(Cl)cc2)C1 + COc1cc2nc(C)nc(NC(C)c3cc(N)cc(C(F)(F)F)c3)c2cc1OC1CCOC1,IC50,second compound 0.1 µM,> 10000 nM
same,IC50,second compound 0.316 µM,> 10000 nM
same,IC50,second compound 1 µM,> 10000 nM
same,IC50,second compound 3.16 µM,> 10000 nM
same,IC50,second compound 10 µM,< 31.6 nM
same,"viability, T/C",[1],97.5%
same,"viability, T/C",[2],97%
same,"viability, T/C",[3],73.6%
same,"viability, T/C",[4],95.5%
same,"viability, T/C",[5],68.8%
same,"viability, T/C",[6],69.7%
same,"viability, T/C",[7],104%
same,"viability, T/C",[8],84.8%
same,"viability, T/C",[9],95.9%
same,"viability, T/C",[10],96.3%
same,"viability, T/C",[11],67%
same,"viability, T/C",[12],72.8%
same,"viability, T/C",[13],102%
same,"viability, T/C",[14],87.3%
same,"viability, T/C",[15],89.6%
same,"viability, T/C",[16],87.3%
same,"viability, T/C",[17],70.1%
same,"viability, T/C",[18],60.6%
same,"viability, T/C",[19],79.1%
same,"viability, T/C",[20],120%
same,"viability, T/C",[21],81.8%
same,"viability, T/C",[22],103%
same,"viability, T/C",[23],78.3%
same,"viability, T/C",[24],57.8%
same,"viability, T/C",[25],23.9%
same,"viability, T/C",[26],31.8%
same,"viability, T/C","second compound 10 µM, first compound 0.316 µM",25%
same,"viability, T/C","second compound 10 µM, first compound 1 µM",41.3%
same,"viability, T/C","second compound 10 µM, first compound 3.16 µM",38.8%
same,"viability, T/C","second compound 10 µM, first compound 10 µM",54.8%
CC(C)n1nc(-c2ccc3oc(N)nc3c2)c2c(N)ncnc21 + CC1OCC2(CCN(c3cnc(Sc4ccnc(N)c4Cl)c(N)n3)CC2)C1N,IC50,second compound 0.1 µM,67.8 nM
same,IC50,second compound 0.316 µM,> 100 nM
same,IC50,second compound 1 µM,48.9 nM
same,IC50,second compound 3.16 µM,12.1 nM
same,IC50,second compound 10 µM,7.82 nM
same,"viability, T/C","second compound 0.1 µM, first compound 0.000316 µM",87.9%
same,"viability, T/C","second compound 0.1 µM, first compound 0.001 µM",104%
same,"viability, T/C","second compound 0.1 µM, first compound 0.00316 µM",71.9%
same,"viability, T/C","second compound 0.1 µM, first compound 0.01 µM",69.7%
same,"viability, T/C",[1],54.1%
same,"viability, T/C",[2],47.1%
same,"viability, T/C","second compound 0.316 µM, first compound 0.000316 µM",90.9%
same,"viability, T/C","second compound 0.316 µM, first compound 0.001 µM",81.7%
same,"viability, T/C","second compound 0.316 µM, first compound 0.00316 µM",67.5%
same,"viability, T/C","second compound 0.316 µM, first compound 0.01 µM",68.9%
same,"viability, T/C",[7],53.8%
same,"viability, T/C",[8],57.5%
same,"viability, T/C","second compound 1 µM, first compound 0.000316 µM",80.9%
same,"viability, T/C","second compound 1 µM, first compound 0.001 µM",68.1%
same,"viability, T/C","second compound 1 µM, first compound 0.00316 µM",77%
same,"viability, T/C","second compound 1 µM, first compound 0.01 µM",59.1%
same,"viability, T/C",[13],52.5%
same,"viability, T/C",[14],44.7%
same,"viability, T/C","second compound 3.16 µM, first compound 0.000316 µM",73.7%
same,"viability, T/C","second compound 3.16 µM, first compound 0.001 µM",74.5%
same,"viability, T/C","second compound 3.16 µM, first compound 0.00316 µM",51.6%
same,"viability, T/C","second compound 3.16 µM, first compound 0.01 µM",57.7%
same,"viability, T/C",[19],40.3%
same,"viability, T/C",[20],32.5%
same,"viability, T/C","second compound 10 µM, first compound 0.000316 µM",70.6%
same,"viability, T/C","second compound 10 µM, first compound 0.001 µM",66.8%
same,"viability, T/C","second compound 10 µM, first compound 0.00316 µM",64.4%
same,"viability, T/C","second compound 10 µM, first compound 0.01 µM",45.9%
same,"viability, T/C",[25],43.4%
same,"viability, T/C",[26],40.1%
